These are literature values, as cited in PMC5997364, “OG716: Designing a fit-for-purpose lantibiotic for the treatment of Clostridium difficile infections” (PLoS ONE, 2018).

Molecules are shown by their SMILES. Values after ≈ are worked out from the molar mass of the structure shown.

On the set-up of this series: method as in earlier work. As to conditions: cited from earlier work.

On to `CCc1c(Cl)c(O)c(Cl)c(O)c1C(=O)O[C@H]1[C@H](O)[C@H](OC)[C@H](OC/C2=C\C=C\C[C@H](O)/C(C)=C/[C@H](CC)[C@@H](O[C@@H]3OC(C)(C)[C@@H](OC(=O)C(C)C)[C@H](O)[C@@H]3O)/C(C)=C/C(C)=C/C[C@@H]([C@@H](C)O)OC2=O)O[C@@H]1C` [fidaxomycin], for which the solubility in water was 12.5 µg/mL (≈ 11.8 µM).
